Source: the NIST ThermoML archive (doi:10.1016/j.jct.2014.02.008)

Assay: cn = amount concentration of the nth substance listed, in mol/dm3
Conditions: 298.15 K, 101 kPa, Liquid, Taylor dispersion method

NCCCC[C@H](N)C(=O)O [L-lysine] + O
Conditions | binary diffusion coefficient [m2/s]
c1 = 0.001 | 6.66e-10
c1 = 0.005 | 6.62e-10
c1 = 0.01 | 6.61e-10
c1 = 0.02 | 6.59e-10
c1 = 0.03 | 6.52e-10
c1 = 0.05 | 6.46e-10
c1 = 0.1 | 6.26e-10
